Like-named read-outs stand apart in the source and are kept apart here. Starred links: 1 amine or outer side, 2 acyl side, 3 side chain; linkers in the order of their positions; H or OH if unused. Positions of bridges follow the written chain, without caps; N, C: chain ends. Non-standard residues stand in square brackets, D forms with d. Residues, ends and D or L forms follow the SMILES beside them. ξ: configuration not given here. X2 = CCOc1ccc(-c2[nH]c3ccccc3c2C[C@H](N[*:1])C(=O)[*:2])cc1; Phe(3,4,5-F3) = N[C@@H](Cc1cc(F)c(F)c(F)c1)C(=O)O; Ala(4-thiazolyl) = N[C@@H](Cc1cscn1)C(=O)O; Phe(3-CN) = N#Cc1cccc(C[C@H](N)C(=O)O)c1; d(cisHyp) = O=C(O)[C@H]1C[C@@H](O)CN1; Bta = N[C@@H](Cc1csc2ccccc12)C(=O)O; Hyp = O=C(O)[C@@H]1C[C@@H](O)CN1; NMeF = CN[C@@H](Cc1ccccc1)C(=O)O; X4 = O=C([C@H]1COCCN1[*:1])[*:2]; dHyp = O=C(O)[C@H]1C[C@H](O)CN1; NMeNle = CCCC[C@H](NC)C(=O)O; NMeS = CN[C@@H](CO)C(=O)O; ξR = N=C(N)NCCCC(N)C(=O)O; NMeA = CN[C@@H](C)C(=O)O; Orn = NCCC[C@H](N)C(=O)O; Dab = NCC[C@H](N)C(=O)O; Dap = NC[C@H](N)C(=O)O; Sar = CNCC(=O)O
How the values were obtained:
Human PD-L1/PD-1 = molecular target: T1, Human PD-L1/PD-1 (Homo sapiens, UniProt Q9NZQ7); assay: HTRF PD-1-Ig/PD-L1-His binding assay (human PD-L1); details: cluster symbol; read-out: HTRF IC50 cluster
T1 construct: made in house; host or cells: HEK293T
T1 sequence (Q9NZQ7 with tags, fused parts or gaps): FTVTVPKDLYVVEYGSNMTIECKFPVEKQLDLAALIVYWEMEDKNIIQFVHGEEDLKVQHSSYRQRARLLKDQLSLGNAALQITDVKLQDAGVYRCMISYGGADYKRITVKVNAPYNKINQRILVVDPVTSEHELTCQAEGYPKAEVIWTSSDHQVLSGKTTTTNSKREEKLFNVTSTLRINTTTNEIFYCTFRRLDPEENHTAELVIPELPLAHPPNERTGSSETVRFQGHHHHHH
In short: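 Interaction of Fc-tagged soluble PD-1 with His-tagged soluble PD-L1 is monitored by time-resolved FRET. Donor is europium cryptate anti-Ig (1 nM final) and acceptor is APC anti-His (20 nM final). Assay buffer is dPBS with 0.1% BSA and 0.05% Tween-20.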

[1] = molecular target: T2, LK35.2-hPD-L1 cells / PE-labeled PD-1-Ig (Homo sapiens, UniProt Q9NZQ7); assay: LK35.2-hPD-L1 cell binding high-content screening assay; format: cell-based; details: cluster symbol, read-out: CBA IC50 cluster
T2 construct: expressed in transfected cells; host or cells: LK35.2 mouse B cell line
T2 sequence (Q9NZQ7 19-290): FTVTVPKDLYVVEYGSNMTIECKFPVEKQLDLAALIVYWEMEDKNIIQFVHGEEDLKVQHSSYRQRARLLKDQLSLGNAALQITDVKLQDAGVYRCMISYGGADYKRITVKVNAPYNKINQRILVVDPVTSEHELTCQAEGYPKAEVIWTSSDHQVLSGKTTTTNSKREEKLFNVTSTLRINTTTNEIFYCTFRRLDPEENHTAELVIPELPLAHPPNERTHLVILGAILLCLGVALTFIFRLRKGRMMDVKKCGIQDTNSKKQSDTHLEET
In short: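 Fluorescent PD-1-Ig binding to PD-L1-expressing LK35.2 cells, imaged after washing. Conditions: 1 nM PE-PD-1-Ig, 37 °C, 1 h, RPMI with 10% fetal calf serum.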

[2] = cell line of CBA not given (LK35.2-hPD-L1 or 293T-hPD-L1)
[3] = cell binding assay, cell line not given

| SMILES | IC50 (Human PD-L1/PD-1) [nM] | IC50 [1, 2] [nM] | IC50 [1, 3] [nM] |
| --- | --- | --- | --- |
| CCCC[C@H]1C(=O)N(C)[C@@H](CCCC)C(=O)N[C@@H](CCCN)C(=O)N[C@H](C(=O)NCC(N)=O)CSCC(=O)N[C@@H](Cc2ccc(O)cc2)C(=O)N2CCC[C@H]2C(=O)N[C@@H](CC(=O)O)C(=O)N2CCC[C@H]2C(=O)N[C@@H](CN)C(=O)N[C@@H](CCC(=O)O)C(=O)N2C[C@H](O)C[C@H]2C(=O)N[C@@H](Cc2c[nH]c3ccccc23)C(=O)N[C@@H](CCN)C(=O)N[C@@H](Cc2csc3ccccc23)C(=O)N1C [Example 1193] ({CH2CO}-YPDP[Dap]E[Hyp]W[Dab][Bta][NMeNle][NMeNle][Orn]CG-NH2; thioether N-14) | 0.385 to 6.74 | 0.158 to 4.71 |  |
| CCCC[C@H]1C(=O)N2C[C@H](O)C[C@@H]2C(=O)N[C@@H](CC(=O)O)C(=O)N[C@@H](C(C)C)C(=O)N(C)[C@@H](Cc2ccccc2)C(=O)N[C@@H](Cc2ccc(O)cc2)C(=O)N2CCC[C@@H]2C(=O)N[C@@H](Cc2c[nH]c3ccccc23)C(=O)N[C@@H](Cc2ccc(O)cc2)C(=O)N[C@@H](CC(C)C)C(=O)N[C@H](C(=O)NCC(N)=O)CSCC(=O)N[C@@H](Cc2cc(F)c(F)c(F)c2)C(=O)N(C)[C@@H](Cc2ccccc2)C(=O)N1C [Example 3183] ({CH2CO}-[Phe(3,4,5-F3)][NMeF][NMeNle][d(cisHyp)]DV[NMeF]Y[dP]WYLCG-NH2; thioether N-13) | 0.385 to 6.74 | 0.158 to 4.71 |  |
| CCCC[C@H]1C(=O)N(C)[C@@H](CCCC)C(=O)N[C@@H](CCCNC(=N)N)C(=O)N[C@H](C(=O)NCC(N)=O)CSCC(=O)N[C@@H](Cc2ccc(O)cc2)C(=O)N(C)[C@@H](C)C(=O)N[C@@H](CC(=O)O)C(=O)N2CCC[C@H]2C(=O)N[C@@H](Cc2cnc[nH]2)C(=O)N[C@@H](CC(C)C)C(=O)N2C[C@H](O)C[C@H]2C(=O)N[C@@H](Cc2c[nH]c3ccccc23)C(=O)N[C@@H](CO)C(=O)N[C@@H](Cc2c[nH]c3ccccc23)C(=O)N1C [Example 1166] ({CH2CO}-Y[NMeA]DPHL[Hyp]WSW[NMeNle][NMeNle]RCG-NH2; thioether N-14) | 0.385 to 6.74 | 0.158 to 4.71 |  |
| CCCC[C@H]1C(=O)N(C)[C@@H](CCCC)C(=O)N[C@@H](CCC(=O)O)C(=O)N[C@H](C(=O)NCC(N)=O)CSCC(=O)N[C@@H](Cc2ccc(O)cc2)C(=O)N(C)[C@@H](C)C(=O)N[C@@H](CC(N)=O)C(=O)N2CCC[C@H]2C(=O)N[C@@H](Cc2c[nH]cn2)C(=O)N[C@@H](CCC(N)=O)C(=O)N2C[C@H](O)C[C@H]2C(=O)N[C@@H](Cc2c[nH]c3ccccc23)C(=O)N[C@@H](CO)C(=O)N[C@@H](Cc2c[nH]c3ccccc23)C(=O)N1C [Example 5126] ({CH2CO}-Y[NMeA]NPHQ[Hyp]WSW[NMeNle][NMeNle]ECG-NH2; thioether N-14) | 0.385 to 6.74 |  | 4.78 to 72.9 |
| CCCC[C@H]1C(=O)N(C)CC(=O)N[C@@H](CC(=O)O)C(=O)N[C@@H](CC2CCCCC2)C(=O)N(C)[C@@H](Cc2ccccc2)C(=O)N[C@@H](Cc2ccc(O)cc2)C(=O)N(C)CC(=O)N[C@@H](Cc2c[nH]c3ccccc23)C(=O)N[C@@H](Cc2ccc(O)cc2)C(=O)N[C@@H](CC(C)C)C(=O)N[C@H](C(=O)NCC(N)=O)CSCC(=O)N[C@@H](Cc2ccccc2)C(=O)N(C)[C@@H](Cc2ccccc2)C(=O)N1C [Example 3159] (HELM PEPTIDE1{[O=C(C[*:3])[*:2]].F.[meF].[CCCC[C@@H](C(=O)[*:2])N(C)[*:1]].[Sar].D.[Cha].[meF].Y.[Sar].W.Y.L.C.G.[am]}$PEPTIDE1,PEPTIDE1,1:R3-14:R3$$$V2.0) | > 30.5 | > 74.3 |  |
| CCCC[C@H]1C(=O)N2C[C@@H](O)C[C@@H]2C(=O)N[C@@H](CC(N)=O)C(=O)N[C@@H](C(C)C)C(=O)N(C)[C@@H](Cc2ccccc2)C(=O)N[C@@H](CCC(N)=O)C(=O)N2CCOC[C@@H]2C(=O)N[C@@H](Cc2c[nH]c3ccccc23)C(=O)N[C@@H](Cc2ccc(O)cc2)C(=O)N[C@@H](CCCN)C(=O)N[C@H](C(=O)NCC(N)=O)CSCC(=O)N[C@@H](Cc2cc(F)c(F)c(F)c2)C(=O)N(C)[C@@H](Cc2ccccc2)C(=O)N1C [Example 3605] ({CH2CO}-[Phe(3,4,5-F3)][NMeF][NMeNle][dHyp]NV[NMeF]Q[X4]WY[Orn]CG-NH2; thioether N-13) | 0.385 to 6.74 |  | 0.158 to 4.71 |
| CCCC[C@H]1C(=O)N(C)[C@@H](CCCC)C(=O)NC(CCCNC(=N)N)C(=O)N[C@H](C(=O)NCC(N)=O)CSCC(=O)N[C@@H](Cc2ccc(O)cc2)C(=O)N(C)[C@@H](C)C(=O)N[C@@H](CC(N)=O)C(=O)N2CCC[C@H]2C(=O)N[C@@H](CN)C(=O)N[C@@H](CC(C)C)C(=O)N2CCC[C@H]2C(=O)N[C@@H](Cc2c[nH]c3ccccc23)C(=O)N[C@@H](CO)C(=O)N[C@@H](Cc2c(-c3ccc(OCC)cc3)[nH]c3ccccc23)C(=O)N1C (stereo partly shown) [Example 7011] ({CH2CO}-Y[NMeA]NP[Dap]LPWS[X2][NMeNle][NMeNle][ξR]CG-NH2; thioether N-14) | 0.385 to 6.74 |  | 4.78 to 72.9 |
| CCCC[C@H]1C(=O)N(C)[C@@H](CCCC)C(=O)N[C@@H](CCCNC(=N)N)C(=O)N[C@H](C(=O)NCC(N)=O)CSCC(=O)N[C@@H](Cc2cccc(C#N)c2)C(=O)N(C)[C@@H](C)C(=O)N[C@@H](CC(N)=O)C(=O)N2CCC[C@H]2C(=O)N[C@@H](CN)C(=O)N[C@@H](CC(C)C)C(=O)N2C[C@H](O)C[C@H]2C(=O)N[C@@H](Cc2c[nH]c3ccccc23)C(=O)N[C@@H](CO)C(=O)N[C@@H](Cc2c[nH]c3ccccc23)C(=O)N1C [Example 7037] ({CH2CO}-[Phe(3-CN)][NMeA]NP[Dap]L[Hyp]WSW[NMeNle][NMeNle]RCG-NH2; thioether N-14) | 6.76 to 30.3 |  | 4.78 to 72.9 |
| CCCC[C@H]1C(=O)N(C)CC(=O)N[C@@H](CC(=O)O)C(=O)N[C@@H](C(C)C)C(=O)N(C)[C@@H](Cc2ccccc2)C(=O)N[C@@H](Cc2ccc(O)cc2)C(=O)N2CCC[C@H]2C(=O)N[C@@H](Cc2c[nH]c3ccccc23)C(=O)N[C@@H](Cc2ccc(O)cc2)C(=O)N[C@@H](CC(C)C)C(=O)N[C@H](C(=O)NCC(N)=O)CSCC(=O)N[C@@H](Cc2ccccc2)C(=O)N(C)[C@@H](Cc2ccccc2)C(=O)N1C [Example 3069] (HELM PEPTIDE1{[O=C(C[*:3])[*:2]].F.[meF].[CCCC[C@@H](C(=O)[*:2])N(C)[*:1]].[Sar].D.V.[meF].Y.P.W.Y.L.C.G.[am]}$PEPTIDE1,PEPTIDE1,1:R3-14:R3$$$V2.0) | > 30.5 | > 74.3 |  |
| CCCC[C@H]1C(=O)N(C)[C@@H](CCSC)C(=O)N[C@@H](C)C(=O)NC(C(=O)NCC(N)=O)CSCC(=O)N[C@@H](Cc2ccc(O)cc2)C(=O)N(C)[C@@H](C)C(=O)N[C@@H](CC(N)=O)C(=O)N2CCC[C@H]2C(=O)N[C@@H](CN)C(=O)N[C@@H](CC(C)C)C(=O)N2C[C@H](O)C[C@H]2C(=O)N[C@@H](Cc2c[nH]c3ccccc23)C(=O)N[C@@H](CO)C(=O)N[C@@H](Cc2c[nH]c3ccccc23)C(=O)N1C (stereo partly shown) [Example 9087] | 0.385 to 6.74 |  | 0.158 to 4.71 |
| CCCC[C@H]1C(=O)N(C)[C@@H](CCCC)C(=O)N[C@@H](CCCNC(=N)N)C(=O)N[C@H](C(=O)NCC(N)=O)CSCC(=O)N[C@@H](Cc2cscn2)C(=O)N(C)[C@@H](C)C(=O)N[C@@H](CC(N)=O)C(=O)N2CCC[C@H]2C(=O)N[C@@H](Cc2cnc[nH]2)C(=O)N[C@@H](CC(C)C)C(=O)N(C)CC(=O)N[C@@H](Cc2c[nH]c3ccccc23)C(=O)N[C@@H](CO)C(=O)N[C@@H](Cc2c[nH]c3ccccc23)C(=O)N1C [Example 1096] ({CH2CO}-[Ala(4-thiazolyl)][NMeA]NPHL[Sar]WSW[NMeNle][NMeNle]RCG-NH2; thioether N-14) | > 30.5 | > 74.3 |  |
| CCCC[C@H]1C(=O)N(C)[C@@H](CCCC)C(=O)N[C@@H](CO)C(=O)N[C@H](C(=O)NCC(N)=O)CSCC(=O)N[C@@H](Cc2ccc(O)cc2)C(=O)N(C)[C@@H](C)C(=O)N[C@@H](CO)C(=O)N2CCC[C@H]2C(=O)N[C@@H](CO)C(=O)N[C@@H](CC(C)C)C(=O)N2C[C@H](O)C[C@H]2C(=O)N[C@@H](Cc2c[nH]c3ccccc23)C(=O)N[C@@H](CO)C(=O)N[C@@H](Cc2c[nH]c3ccccc23)C(=O)N1C [Example 5116] ({CH2CO}-Y[NMeA]SPSL[Hyp]WSW[NMeNle][NMeNle]SCG-NH2; thioether N-14) | 0.385 to 6.74 |  | 4.78 to 72.9 |
| CCCC[C@H]1C(=O)N(C)[C@@H](CCCC)C(=O)N[C@@H](CCCNC(=N)N)C(=O)N[C@H](C(=O)NCC(N)=O)CSCC(=O)N[C@@H](Cc2ccccc2)C(=O)N(C)[C@@H](C)C(=O)N[C@@H](CC(N)=O)C(=O)N2CCC[C@H]2C(=O)N[C@@H](Cc2cnc[nH]2)C(=O)N[C@@H](CC(C)C)C(=O)N(C)CC(=O)N[C@@H](Cc2c[nH]c3ccccc23)C(=O)N(C)[C@@H](CO)C(=O)N[C@@H](Cc2c[nH]c3ccccc23)C(=O)N1C [Example 1078] ({CH2CO}-F[NMeA]NPHL[Sar]W[NMeS]W[NMeNle][NMeNle]RCG-NH2; thioether N-14) | > 30.5 | > 74.3 |  |
| CCCC[C@H]1C(=O)N(C)[C@@H](CCOC)C(=O)N[C@@H](CCCNC(=N)N)C(=O)NC(C(=O)NCC(N)=O)CSCC(=O)N[C@@H](Cc2ccc(O)cc2)C(=O)N(C)[C@@H](C)C(=O)N[C@@H](CC(N)=O)C(=O)N2CCC[C@H]2C(=O)N[C@@H](Cc2cnc[nH]2)C(=O)N[C@@H](CC(C)C)C(=O)N2C[C@H](O)C[C@@H]2C(=O)N[C@@H](Cc2c[nH]c3ccccc23)C(=O)N[C@@H](CO)C(=O)N[C@@H](Cc2c[nH]c3ccccc23)C(=O)N1C (stereo partly shown) [Example 9003] | 0.385 to 6.74 |  | 0.158 to 4.71 |

Source: patent US9850283B2, “Macrocyclic inhibitors of the PD-1/PD-L1 and CD80(B7-1)/PD-L1 protein/protein interactions” (BRISTOL-MYERS SQUIBB COMPANY, priority 2013, dated 2017)
